For test [1], the target named is COX-1 (Homo sapiens, UniProt P23219). It is filed as biochemical. The conditions noted are these: for COX-1 inhibition, result in words: initial screen at 25 μM / relevant concentration range; for pIC50: read-out: IC50 COX-1, radioactivity assay, pre-incubation 17 min at 25 °C and 3 min at 37 °C, 50 μM [14C]-AA for 30 sec, average of at least two independent experiments.

The target in test [2] is T1, COX-2 (Homo sapiens, UniProt P35354).
T1 sequence (P35354 18-604): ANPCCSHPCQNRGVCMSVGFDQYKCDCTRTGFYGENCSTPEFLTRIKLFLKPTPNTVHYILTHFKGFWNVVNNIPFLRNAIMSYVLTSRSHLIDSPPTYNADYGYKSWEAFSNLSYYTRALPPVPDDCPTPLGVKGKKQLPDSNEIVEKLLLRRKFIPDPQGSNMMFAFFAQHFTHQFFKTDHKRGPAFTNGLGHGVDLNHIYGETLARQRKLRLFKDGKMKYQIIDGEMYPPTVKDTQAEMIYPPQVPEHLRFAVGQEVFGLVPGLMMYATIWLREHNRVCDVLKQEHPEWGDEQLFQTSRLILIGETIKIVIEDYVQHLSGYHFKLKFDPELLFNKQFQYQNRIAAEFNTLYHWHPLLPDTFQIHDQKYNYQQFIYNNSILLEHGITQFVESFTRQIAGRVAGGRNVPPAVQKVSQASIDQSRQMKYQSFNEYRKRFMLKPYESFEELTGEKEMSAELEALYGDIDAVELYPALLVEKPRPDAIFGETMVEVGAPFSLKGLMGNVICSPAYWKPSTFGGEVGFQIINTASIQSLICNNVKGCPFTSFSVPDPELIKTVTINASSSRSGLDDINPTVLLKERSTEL
The class given is biochemical. As to conditions: for COX-2 inhibition, result in words: initial screen at 25 μM / relevant concentration range; for pIC50: read-out: IC50 COX-2, radioactivity assay, pre-incubation 17 min at 25 °C and 3 min at 37 °C, 50 μM [14C]-AA for 30 sec, average of at least two independent experiments.

pIC50: −log10 of the molar value. A value given as a limit tells only on which side of the number the result lay.

Sequence of COX-1 (P23219 24-599): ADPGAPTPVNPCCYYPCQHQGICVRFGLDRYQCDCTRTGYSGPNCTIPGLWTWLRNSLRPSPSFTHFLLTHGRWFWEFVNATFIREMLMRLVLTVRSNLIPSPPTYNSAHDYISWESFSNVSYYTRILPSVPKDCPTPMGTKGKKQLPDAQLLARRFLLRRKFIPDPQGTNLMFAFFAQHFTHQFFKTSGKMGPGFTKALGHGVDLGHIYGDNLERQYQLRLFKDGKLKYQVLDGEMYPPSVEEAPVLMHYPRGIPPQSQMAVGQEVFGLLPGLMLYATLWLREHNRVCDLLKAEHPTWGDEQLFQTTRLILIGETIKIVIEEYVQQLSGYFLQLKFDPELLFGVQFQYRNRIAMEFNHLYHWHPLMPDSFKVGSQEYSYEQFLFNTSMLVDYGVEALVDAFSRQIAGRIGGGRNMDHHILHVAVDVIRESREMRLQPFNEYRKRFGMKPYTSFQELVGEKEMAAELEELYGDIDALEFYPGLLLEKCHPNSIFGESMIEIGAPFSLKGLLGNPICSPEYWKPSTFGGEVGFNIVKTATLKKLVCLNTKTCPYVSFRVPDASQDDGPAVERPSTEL

The pIC50 is −log10 of the IC50, conventionally taken in molar units. For “1-(1-Carboxy-1,2-dicarba-closo-dodecaboran(12)yl)-5-methoxy-2-methyl-1H-indole-3-acetic acid [Compound 4o]”, in test [1], the “COX-1 inhibition, result in words” value is given as “not COX-1” and the pIC50 is below 4.60. In test [2], the “COX-2 inhibition, result in words” value is “exclusively inhibited COX-2” and the pIC50 is 5.43.
For “1-(1-Carboxy-1,2-dicarba-closo-dodecaboran(12)yl)-5-methoxy-2-methyl-1H-indole-3-acetic acid tert-butyl ester [Compound 3o]”, in that order: “not COX-1”, below 4.60, “exclusively inhibited COX-2” and 5.85.
Take “1-(1-Carboxy-1,2-dicarba-closo-dodecaboran(12)yl)-5-methoxy-2-methyl-1H-indole-3-acetic acid methyl ester [Compound 1o]”: in test [1], the “COX-1 inhibition, result in words” value was “also inhibited COX-1”. Besides, the pIC50 in test [1] was 4.89; in test [2], 7.08.
Regarding `COC(=O)Cc1c(C)n(C(=O)c2ccc(Cl)cc2)c2ccc(OC)cc12` [Compound 1i, Indomethacin methyl ester, reference compound], the pIC50 in test [1] is below 4.60.
Turning to “1-(1-Carboxy-1,2-dicarba-closo-dodecaboran(12)yl)-5-methoxy-2-methyl-1H-indole-3-acetic acid benzyl ester [Compound 2o]”, in test [1], the “COX-1 inhibition, result in words” value is given as “also inhibited COX-1” and the pIC50 is 4.82. The pIC50 in test [2] is 4.94.

(Values after publication PMC3408963 (Bioorganic & medicinal chemistry, 2012).)
